Measured values reported in patent US11649242B2, “Pyrrolopyrrole compositions as pyruvate kinase (PKR) activators” (FORMA Therapeutics, Inc., priority 2017, dated 2023).

Key:
Format in all cases: biochemical
PKR(G332S) = PKR(G332S) (Homo sapiens, UniProt P30613, G332S); test: Luminescence Assay Protocol (Kinase Glo Plus), PKR(G332S/with FBP); conditions: PKRG332S, with FBP; for activation at 1.54 µM: compound 1.54 μM, read-out: C - AC50 LUM KGP FBP % Fold @ 1.54 μM mean; for AC50: gmean, read-out: A - AC50 LUM KGP FBP AC50 μM gmean; for Emax: highest % fold increase at any concentration, read-out: B - AC50 LUM KGP FBP MAX % FOLD mean
Sequence of PKR(G332S) (P30613 whole entry G332S): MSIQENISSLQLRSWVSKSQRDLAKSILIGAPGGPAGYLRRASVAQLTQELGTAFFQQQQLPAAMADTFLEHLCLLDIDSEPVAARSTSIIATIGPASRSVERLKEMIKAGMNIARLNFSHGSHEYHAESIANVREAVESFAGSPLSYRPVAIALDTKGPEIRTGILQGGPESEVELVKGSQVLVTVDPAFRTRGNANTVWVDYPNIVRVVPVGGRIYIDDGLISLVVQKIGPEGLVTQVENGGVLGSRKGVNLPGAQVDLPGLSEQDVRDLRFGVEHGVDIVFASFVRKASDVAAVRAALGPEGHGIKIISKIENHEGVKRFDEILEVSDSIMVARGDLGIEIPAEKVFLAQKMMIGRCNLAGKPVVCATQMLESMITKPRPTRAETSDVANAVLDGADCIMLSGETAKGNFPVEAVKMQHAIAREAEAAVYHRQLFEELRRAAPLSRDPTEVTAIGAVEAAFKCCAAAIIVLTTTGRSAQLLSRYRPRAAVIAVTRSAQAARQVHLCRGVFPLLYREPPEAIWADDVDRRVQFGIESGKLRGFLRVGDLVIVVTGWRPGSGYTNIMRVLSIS
Outline: (§1)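 Enzyme (wt 0.8 nM, R510Q 0.8 nM, G332S 10 nM) was preincubated 30 min at RT with compound and 100 μM PEP in Tris/KCl/MgCl2 buffer, then started with 100 μM ADP, plus 30 μM FBP for G332S. Luminescence was read after 45 min at RT. AC50 came from a four-parameter fit of % fold over DMSO across 42.5 μM–2.2 nM.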

PKR(R510Q) = PKR(R510Q) (Homo sapiens, UniProt P30613, R510Q); test: Luminescence Assay Protocol (Kinase Glo Plus), PKR(R510Q/without FBP); conditions: PKRR510Q, without FBP; for activation at 1.54 µM: compound 1.54 μM, read-out: F - AC50 LUM KGP woFBP % Fold @ 1.54 μM mean; for AC50: gmean, read-out: D - AC50 LUM KGP woFBP AC50 μM gmean; for Emax: highest % fold increase at any concentration, read-out: E - AC50 LUM KGP woFBP MAX % FOLD mean
Sequence of PKR(R510Q) (P30613 whole entry R510Q): as the sequence (P30613 whole entry G332S) above, with S332G, R510Q counted along it
Outline: as §1

PKR(wt) = PKR(wt) (Homo sapiens, UniProt P30613); test: Luminescence Assay Protocol (Kinase Glo Plus), PKR(Wt/without FBP); conditions: without FBP; for activation at 1.54 µM: compound 1.54 μM, read-out: I - AC50 LUM KGP woFBP % Fold @ 1.54 μM mean; for AC50: gmean, read-out: G - AC50 LUM KGP woFBP AC50 μM gmean; for Emax: highest % fold increase at any concentration, read-out: H - AC50 LUM KGP woFBP MAX % FOLD mean
Sequence of PKR(wt) (P30613 whole entry): as the sequence (P30613 whole entry G332S) above, with S332G counted along it
Outline: as §1

`O=C([C@H](CO)c1ccccc1)N1CC2=C(C1)CN(S(=O)(=O)c1ccccn1)C2` [Example 51, (2S)-3-hydroxy-2-phenyl-1-[5-(pyridine-2-sulfonyl)-1H,2H,3H,4H,5H,6H-pyrrolo[3,4-c]pyrrol-2-yl]propan-1-one] was tested. Which activation at 1.54 µM (PKR(G332S)) did it give?
The activation at 1.54 µM was 75 to 250%.

What about the AC50 (PKR(G332S)) of the same molecule?
The AC50 was 0.1 to 1 µM.

What about the Emax (PKR(G332S)) of the same molecule?
Its Emax is 75 to 250%.

And the activation at 1.54 µM (PKR(R510Q))?
The activation at 1.54 µM was 250 to 500%.

And the AC50 (PKR(R510Q))?
The AC50 was at most 0.1 µM.

And the Emax (PKR(R510Q))?
Its Emax is 250 to 500%.

And the activation at 1.54 µM (PKR(wt))?
Its activation at 1.54 µM is 250 to 500%.

What about the AC50 (PKR(wt)) of the same molecule?
The AC50 was at most 0.1 µM.

What about the Emax (PKR(wt)) of the same molecule?
The Emax was 250 to 500%.

For `O=C([C@H](CO)c1ccccc1)N1CC2=C(C1)CN(S(=O)(=O)c1ccc(C(F)(F)F)nc1)C2` [Example 52, (2S)-3-hydroxy-2-phenyl-1-(5-{[6-(trifluoromethyl)pyridin-3-yl]sulfonyl}-1H,2H,3H,4H,5H,6H-pyrrolo[3,4-c]pyrrol-2-yl)propan-1-one], which activation at 1.54 µM (PKR(G332S)) is on record?
The activation at 1.54 µM was 75 to 250%.

What about the AC50 (PKR(G332S)) of the same molecule?
The AC50 was 0.1 to 1 µM.

What about the Emax (PKR(G332S)) of the same molecule?
The Emax was 75 to 250%.

What about the activation at 1.54 µM (PKR(R510Q)) of the same molecule?
Its activation at 1.54 µM is 75 to 250%.

What about the AC50 (PKR(R510Q)) of the same molecule?
Its AC50 is 1 to 40 µM.

And the Emax (PKR(R510Q))?
Its Emax is 250 to 500%.

What about the activation at 1.54 µM (PKR(wt)) of the same molecule?
Its activation at 1.54 µM is 75 to 250%.

And the AC50 (PKR(wt))?
The AC50 was 0.1 to 1 µM.

And the Emax (PKR(wt))?
The Emax was 75 to 250%.

For `COCCC(=O)N1CC2=C(C1)CN(S(=O)(=O)c1ccc3c(c1)N(C)CCO3)C2` [Example 53, 3-methoxy-1-(5-((4-methyl-3,4-dihydro-2H-benzo[b][1,4]oxazin-6-yl)sulfonyl)-3,4,5,6-tetrahydropyrrolo[3,4-c]pyrrol-2(1H)-yl)propan-1-one], which activation at 1.54 µM (PKR(G332S)) is on record?
The activation at 1.54 µM was 75 to 250%.

And the AC50 (PKR(G332S))?
The AC50 was over 40 µM.

And the Emax (PKR(G332S))?
Its Emax is 75 to 250%.

What about the activation at 1.54 µM (PKR(R510Q)) of the same molecule?
Its activation at 1.54 µM is 75 to 250%.

And the AC50 (PKR(R510Q))?
The AC50 was 1 to 40 µM.

What about the Emax (PKR(R510Q)) of the same molecule?
The Emax was 75 to 250%.

And the activation at 1.54 µM (PKR(wt))?
Its activation at 1.54 µM is 75 to 250%.

What about the AC50 (PKR(wt)) of the same molecule?
Its AC50 is 0.1 to 1 µM.

What about the Emax (PKR(wt)) of the same molecule?
The Emax was 75 to 250%.
